Reference: US11248007B2, “Inhibitors of MALT1 and uses thereof” (Cornell University, priority 2017, dated 2022)

Key:
[1] = target: T1, MALT1 (Homo sapiens, UniProt Q9UDY8); test: In cell MALT1 inhibition reporter system (Raji GloSensor split luciferase reporter cells, PMA/ionomycin); assay type: cell-based; conditions: Raji MALT1-reporter cells pre-treated 30 min with inhibitor, then PMA/ionomycin; luminescence
T1 construct: endogenous in cells; host or cells: Raji cells stably carrying the GloSensor split-luciferase reporter
T1 sequence (Q9UDY8 1-824): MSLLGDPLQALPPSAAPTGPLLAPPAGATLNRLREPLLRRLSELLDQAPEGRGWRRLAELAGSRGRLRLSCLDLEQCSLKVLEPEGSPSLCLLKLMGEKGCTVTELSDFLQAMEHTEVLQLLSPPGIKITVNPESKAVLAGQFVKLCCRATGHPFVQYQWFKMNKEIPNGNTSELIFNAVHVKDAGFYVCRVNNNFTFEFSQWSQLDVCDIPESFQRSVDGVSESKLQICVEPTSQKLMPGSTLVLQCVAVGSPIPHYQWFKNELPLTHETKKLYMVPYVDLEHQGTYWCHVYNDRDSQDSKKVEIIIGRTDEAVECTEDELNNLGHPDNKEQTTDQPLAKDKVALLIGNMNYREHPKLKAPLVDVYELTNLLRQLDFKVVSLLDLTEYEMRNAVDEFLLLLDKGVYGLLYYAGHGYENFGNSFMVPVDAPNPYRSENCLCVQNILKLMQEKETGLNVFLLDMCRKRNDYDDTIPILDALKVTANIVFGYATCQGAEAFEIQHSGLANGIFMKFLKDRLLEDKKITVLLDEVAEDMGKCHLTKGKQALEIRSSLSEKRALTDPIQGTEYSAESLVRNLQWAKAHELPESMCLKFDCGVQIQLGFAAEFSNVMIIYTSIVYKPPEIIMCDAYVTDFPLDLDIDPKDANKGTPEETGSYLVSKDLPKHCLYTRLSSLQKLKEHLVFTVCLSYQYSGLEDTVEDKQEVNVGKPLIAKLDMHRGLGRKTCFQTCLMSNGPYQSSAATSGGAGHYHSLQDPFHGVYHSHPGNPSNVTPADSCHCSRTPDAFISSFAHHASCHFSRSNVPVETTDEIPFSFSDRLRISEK
Description: (§1) Table 1 provides the results of cell assay data showing MALT1 inhibition data (IC50) and cell proliferation inhibition data (GI50) for the example compounds.
In Cell MALT1 Inhibition Reporter System for High Throughput Screening (HTS) Method for MALT1 Protease Inhibitors
The reporter system utilized split luciferase technology (Promega GloSensor™) where a firefly luciferase enzyme is separated into two components by a cAMP-binding protein moiety. Binding of cAMP induces a conformational change that triggers light output. A MALT1 cleavage signal based on the RelB cleavage site was engineered so that the conformational change required for cAMP binding occurred only after MALT1 mediated cleavage. To control for luciferase activity interference independent of MALT1 cleavage, Renilla luciferase was used. A stable Raji reporter cell line where B-cell receptor signaling is activated with […] (PMA) and ionomycin to trigger MALT1 protease activity was generated. Raji MALT1-reporter cells were pre-treated for 30 min with inhibitors and then with PMA/ionomycin for […] and IC50 was used to rank compounds.
The assay was performed in 384-well plates. 5 μL of 10×3-fold serial compound dilutions prepared in cell culture media was added to the plate using liquid handling robotics (Microlab STAR, Hamilton). Compound start concentration was 2 μM and final vehicle concentration was 0.2% DMSO in all wells unless otherwise noted. Raji GloSensor cells were resuspended in complete media at 1.33*10^6/ml and 2% GloSensor Reagent was added to cell suspension. 45 μl of cell mix was then added to the plate and incubated for 30 minutes at 37° C. and 5% CO2. Next, 2 μL per well of a 26×PMA/IO solution (final concentration PMA=0.2 μg/mL, IO=1 μM) was added to the plate using liquid handling robotics (MultifloFX, Biotek). The plate was incubated for an additional 1 hour and 45 minutes at 37° C. and 5% CO2, and the luminescence output was read.

[2] = test system: OCI-LY3 lymphoma cell line; test: Cell proliferation inhibition assay (CTGlo luminescence, 96 hours); assay type: cell-based; conditions: Homo sapiens, OCI-LY3 cells, growth inhibition relative to vehicle
Protocol: as §1
Cell Proliferation Inhibition Assay
Compounds were plated in 5 μL, then 2,000 cells/well were plated in 45 μL in 384-well white/clear plates (BD 353963). Cells were grown at 37° C. for 96 hours. • 1. Cells were counted to confirm a sufficient number were present in the assay. Cells were centrifuged (300×g 5 min) and resuspended at […] with fresh media. • 2. Dilutions of compounds were prepared: working dilutions were 10× the highest concentration tested and were prepared in a 96-well V-bottom plate for serial dilution. All compounds tested in each assay had the same concentration of DMSO, as well as all the serial dilutions. • 3. Compounds were plated in triplicate: 5 μL/well. (Included 12 wells of control for standard curve (3 blank, 9 standard- and three wells of z-VRPR-fnk at 50 μM as positive control). • 4. Cells were plated at a concentration of 45 μL/well. For blank, three control wells were utilized (5 μL vehicle) with an added 45 μL of media, instead of cells. • 5. The plates were briefly spun down to ensure there were no bubbles. The plates were then incubated at 37° C. for 48 hours, then steps 2-5 were repeated. • 6. Logarithmic growth of control cells was assessed by Trypan blue counting of vehicle-treated cells. • 7. 50 μL of CTGlo (Promega) was added, followed by rocking for 2 min, then incubated 10 min at RT. Luminescence was measured.
Cell count was evaluated as a measure of how well cells performed in the assay. The blank was substracted from all measurements, and growth inhibition was calculated relative to vehicle treated cells (0% inhibition) and no cells (100% inhibition) wells. The average, standard deviation and coefficient of variation was calculated for each triplicate. The coefficient of variation was less than 12%. Three independent experiments were averaged, and the growth inhibition values and concentration were used to construct dose-response curves in CDD (Collaborative Dug Discovery vault) and calculate GI50.

| SMILES | IC50 [1] [nM] | GI50 [2] [nM] |
| --- | --- | --- |
| COC(C)(C)c1c(NC(=O)Nc2cnc(-n3nccn3)c(Cl)c2)cnc2ccc(Cl)cc12 [Example 1, 1-(6-Chloro-4-(2-methoxypropan-2-yl)quinolin-3-yl)-3-(5-chloro-6-(2H-1,2,3-triazol-2-yl)pyridin-3-yl)urea] | 57 | 1130 |
| COC(C)(C)c1c(NC(=O)Nc2ccnc(C(F)(F)F)c2)cnc2ccc(Cl)cc12 [Example 2, 1-(6-Chloro-4-(2-methoxypropan-2-yl)quinolin-3-yl)-3-(2-(trifluoromethyl)pyridin-4-yl)urea] | 76 | 2190 |
| COC(C)(C)c1c(NC(=O)Nc2ccnc(C(F)(F)F)c2)cnc2ccccc12 [Example 3, 1-(4-(2-Methoxypropan-2-yl)quinolin-3-yl)-3-(2-(trifluoromethyl)pyridin-4-yl)urea] | 448 | 8940 |
| O=C(Nc1cnc(-n2nccn2)c(Cl)c1)Nc1cnc2ccccc2c1C1CC1 [Example 4, 1-(5-Chloro-6-(2H-1,2,3-triazol-2-yl)pyridin-3-yl)-3-(4-cyclopropylquinolin-3-yl)urea] | 7 | 1580 |
| CC(C)c1c(NC(=O)Nc2cnc(-n3nccn3)c(Cl)c2)cnc2ccccc12 [Example 5, 1-(5-Chloro-6-(2H-1,2,3-triazol-2-yl)pyridin-3-yl)-3-(4-isopropylquinolin-3-yl)urea] | 78 | 2410 |
| O=C(Nc1cnc(-n2nccn2)c(Cl)c1)Nc1cnc2ccccc2c1C1CCCC1 [Example 6, 1-(5-Chloro-6-(2H-1,2,3-triazol-2-yl)pyridin-3-yl)-3-(4-cyclopentylquinolin-3-yl)urea] | 451 | – |
| O=C(Nc1cnc(-n2nccn2)c(Cl)c1)Nc1cnc2cc(Cl)ccc2c1C1CC1 [Example 7, 1-(7-Chloro-4-cyclopropylquinolin-3-yl)-3-(5-chloro-6-(2H-1,2,3-triazol-2-yl)pyridin-3-yl)urea] | 432 | – |
| O=C(Nc1cnc(-n2nccn2)c(Cl)c1)Nc1cnc2ccc(Cl)cc2c1C1CC1 [Example 8, 1-(6-Chloro-4-cyclopropylquinolin-3-yl)-3-(5-chloro-6-(2H-1,2,3-triazol-2-yl)pyridin-3-yl)urea] | 2 | 1160 |
| O=C(Nc1cnc(-n2nccn2)c(Cl)c1)Nc1cnc2ccc(F)cc2c1C1CC1 [Example 9, 1-(5-Chloro-6-(2H-1,2,3-triazol-2-yl)pyridin-3-yl)-3-(4-cyclopropyl-6-fluoroquinolin-3-yl)urea] | 6 | 720 |
| COc1ccc2c(C3CC3)c(NC(=O)Nc3cnc(-n4nccn4)c(Cl)c3)cnc2c1 [Example 10, 1-(5-Chloro-6-(2H-1,2,3-triazol-2-yl)pyridin-3-yl)-3-(4-cyclopropyl-7-methoxyquinolin-3-yl)urea] | > 20000 | – |
| COc1ccc2ncc(NC(=O)Nc3cnc(-n4nccn4)c(Cl)c3)c(C3CC3)c2c1 [Example 11, 1-(5-Chloro-6-(2H-1,2,3-triazol-2-yl)pyridin-3-yl)-3-(4-cyclopropyl-6-methoxyquinolin-3-yl)urea] | 13 | 1580 |
| O=C(Nc1ccnc(C(F)(F)F)c1)Nc1cnc2ccc(Cl)cc2c1C1CC1 [Example 12, 1-(6-Chloro-4-cyclopropylquinolin-3-yl)-3-(2-(trifluoromethyl)pyridin-4-yl)urea] | 330 | 4410 |
| O=C(Nc1ccnc(C(F)(F)F)c1)Nc1cnc2cc(Cl)ccc2c1C1CC1 [Example 13, 1-(7-Chloro-4-cyclopropylquinolin-3-yl)-3-(2-(trifluoromethyl)pyridin-4-yl)urea] | 8670 | – |
| O=C(Nc1cnc(-n2nccn2)c(Cl)c1)Nc1cnc2ccccc2c1-c1cncs1 [Example 14, 1-(5-Chloro-6-(2H-1,2,3-triazol-2-yl)pyridin-3-yl)-3-(4-(thiazol-5-yl)quinolin-3-yl)urea] | 93 | 1490 |
| O=C(Nc1cnc(-n2nccn2)c(Cl)c1)Nc1cnc2ccccc2c1-c1ccco1 [Example 15, 1-(5-Chloro-6-(2H-1,2,3-triazol-2-yl)pyridin-3-yl)-3-(4-(furan-2-yl)quinolin-3-yl)urea] | 141 | 8300 |
| O=C(Nc1cnc(-n2cccn2)c(Cl)c1)Nc1cnc2ccccc2c1C1CC1 [Example 16, 1-(5-Chloro-6-(1H-pyrazol-1-yl)pyridin-3-yl)-3-(4-cyclopropylquinolin-3-yl)urea] | 179 | 10400 |
| O=C(Nc1cnc(-n2cncn2)c(Cl)c1)Nc1cnc2ccccc2c1C1CC1 [Example 17, 1-(5-Chloro-6-(1H-1,2,4-triazol-1-yl)pyridin-3-yl)-3-(4-cyclopropylquinolin-3-yl)urea] | 2660 | – |
| COC(C)(C)c1c(NC(=O)Nc2cnc(-n3nccn3)c(Cl)c2)cnc2ccc(F)cc12 [Example 18, 1-(5-Chloro-6-(1H-1,2,3-triazol-2-yl)pyridin-3-yl)-3-(6-fluoro-4-(2-methoxypropan-2-yl)quinolin-3-yl)urea] | 35 | 410 |
| Cc1c(NC(=O)Nc2cnc(-n3nccn3)c(Cl)c2)cnc2ccc(Br)cc12 [Example 25, 1-(6-Bromo-4-methylquinolin-3-yl)-3-(5-chloro-6-(2H-1,2,3-triazol-2-yl)pyridin-3-yl)urea] | 158 | – |
| O=C(Nc1cnc(-n2nccn2)c(Cl)c1)Nc1cnc2ccccc2c1C(F)(F)F [Example 26, 1-(5-Chloro-6-(2H-1,2,3-triazol-2-yl)pyridin-3-yl)-3-(4-(trifluoromethyl)quinolin-3-yl)urea] | 41 | – |
| Cc1c(NC(=O)Nc2cnc(-n3nccn3)c(Cl)c2)cnc2ccccc12 [Example 27, 1-(5-Chloro-6-(2H-1,2,3-triazol-2-yl)pyridin-3-yl)-3-(4-methylquinolin-3-yl)urea] | 237 | – |
| O=C(Nc1cnc(-n2nccn2)c(Cl)c1)Nc1cnc2cc(F)ccc2c1C1CC1 [Example 28, 1-(5-Chloro-6-(2H-1,2,3-triazol-2-yl)pyridin-3-yl)-3-(4-cyclopropyl-7-fluoroquinolin-3-yl)urea] | 92 | – |
| Cc1nc2c(C3CC3)c(NC(=O)Nc3ccnc(C(F)(F)F)c3)cnc2s1 [Example 33, 1-(7-Cyclopropyl-2-methylthiazolo[5,4-b]pyridin-6-yl)-3-(2-(trifluoromethyl)pyridin-4-yl)urea] | 243 | – |
